{"source": "PubChem BioAssay (NCI)", "experiment_in_all_cases": "NCI tumour cell line growth inhibition, 48 h", "key": {"[1]": {"test_system": "OVCAR-4 ovarian"}, "[2]": {"test_system": "SNB-75 CNS"}, "[3]": {"test_system": "PC-3 prostate"}, "[4]": {"test_system": "NCI-H460 lung"}, "[5]": {"test_system": "NCI-H226 lung"}, "[6]": {"test_system": "SK-OV-3 ovarian"}, "[7]": {"test_system": "HCT-116 colon"}, "[8]": {"test_system": "DU-145 prostate"}, "[9]": {"test_system": "COLO 205 colon"}, "[10]": {"test_system": "786-0 renal"}, "[11]": {"test_system": "UACC-62 melanoma"}, "[12]": {"test_system": "MALME-3M melanoma"}, "[13]": {"test_system": "SN12C renal"}, "[14]": {"test_system": "SF-268 CNS"}, "[15]": {"test_system": "NCI/ADR-RES ovarian"}, "[16]": {"test_system": "SF-539 CNS"}, "[17]": {"test_system": "UO-31 renal"}, "[18]": {"test_system": "T-47D breast"}, "[19]": {"test_system": "LOX IMVI melanoma"}, "[20]": {"test_system": "SF-295 CNS"}, "[21]": {"test_system": "RXF 393 renal"}, "[22]": {"test_system": "CAKI-1 renal"}, "[23]": {"test_system": "HOP-62 NSCLC"}, "[24]": {"test_system": "CCRF-CEM leukemia"}, "[25]": {"test_system": "HCC-2998 colon"}, "[26]": {"test_system": "HS 578T breast"}, "[27]": {"test_system": "OVCAR-5 ovarian"}, "[28]": {"test_system": "HCT-15 colon"}, "[29]": {"test_system": "BT-549 breast"}, "[30]": {"test_system": "U251 CNS"}, "[31]": {"test_system": "TK-10 renal"}, "[32]": {"test_system": "HL-60(TB) leukemia"}, "[33]": {"test_system": "SK-MEL-28 melanoma"}, "[34]": {"test_system": "IGROV1 ovarian"}, "[35]": {"test_system": "KM12 colon"}, "[36]": {"test_system": "SW-620 colon"}, "[37]": {"test_system": "NCI-H522 lung"}, "[38]": {"test_system": "M14 melanoma"}, "[39]": {"test_system": "MDA-MB-231 breast"}, "[40]": {"test_system": "SK-MEL-5 melanoma"}, "[41]": {"test_system": "NCI-H23 lung"}, "[42]": {"test_system": "SR leukemia"}, "[43]": {"test_system": "A549 NSCLC"}, "[44]": {"test_system": "OVCAR-8 ovarian"}, "[45]": {"test_system": "HT29 colon"}, "[46]": {"test_system": "EKVX NSCLC"}, "[47]": {"test_system": "ACHN renal"}, "[48]": {"test_system": "MCF7 breast"}, "[49]": {"test_system": "SK-MEL-2 melanoma"}, "[50]": {"test_system": "SNB-19 CNS"}, "[51]": {"test_system": "K-562 leukemia"}, "[52]": {"test_system": "MOLT-4 leukemia"}, "[53]": {"test_system": "UACC-257 melanoma"}, "[54]": {"test_system": "OVCAR-3 ovarian"}, "[55]": {"test_system": "A498 renal"}, "[56]": {"test_system": "HOP-92 NSCLC"}, "[57]": {"test_system": "MDA-MB-435"}}, "note": "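Interpolation was linear, between the two tested concentrations surrounding the appropriate level; five concentrations were tested over 48 hours in 96-well plates. TGI: total growth inhibition.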"}
{"smiles": "O=C(O)C1(C(=O)O)CC1(C(=O)O)C(=O)O", "values": [{"measurement": "TGI", "setting": "[1]", "result": "> 100", "unit": "µM"}, {"measurement": "TGI", "setting": "[2]", "result": "> 100", "unit": "µM"}, {"measurement": "TGI", "setting": "[3]", "result": "> 100", "unit": "µM"}, {"measurement": "TGI", "setting": "[4]", "result": "> 100", "unit": "µM"}, {"measurement": "TGI", "setting": "[5]", "result": "> 100", "unit": "µM"}, {"measurement": "TGI", "setting": "[6]", "result": "> 100", "unit": "µM"}, {"measurement": "TGI", "setting": "[7]", "result": "> 100", "unit": "µM"}, {"measurement": "TGI", "setting": "[8]", "result": "> 100", "unit": "µM"}, {"measurement": "TGI", "setting": "[9]", "result": "> 100", "unit": "µM"}, {"measurement": "TGI", "setting": "[10]", "result": "> 100", "unit": "µM"}, {"measurement": "TGI", "setting": "[11]", "result": "> 100", "unit": "µM"}, {"measurement": "TGI", "setting": "[12]", "result": "> 100", "unit": "µM"}, {"measurement": "TGI", "setting": "[13]", "result": "> 100", "unit": "µM"}, {"measurement": "TGI", "setting": "[14]", "result": "> 100", "unit": "µM"}, {"measurement": "TGI", "setting": "[15]", "result": "> 100", "unit": "µM"}, {"measurement": "TGI", "setting": "[16]", "result": "> 100", "unit": "µM"}, {"measurement": "TGI", "setting": "[17]", "result": "> 100", "unit": "µM"}, {"measurement": "TGI", "setting": "[18]", "result": "> 100", "unit": "µM"}, {"measurement": "TGI", "setting": "[19]", "result": "> 100", "unit": "µM"}, {"measurement": "TGI", "setting": "[20]", "result": "> 100", "unit": "µM"}, {"measurement": "TGI", "setting": "[21]", "result": "> 100", "unit": "µM"}, {"measurement": "TGI", "setting": "[22]", "result": "> 100", "unit": "µM"}, {"measurement": "TGI", "setting": "[23]", "result": "> 100", "unit": "µM"}, {"measurement": "TGI", "setting": "[24]", "result": "> 100", "unit": "µM"}, {"measurement": "TGI", "setting": "[25]", "result": "> 100", "unit": "µM"}, {"measurement": "TGI", "setting": "[26]", "result": "> 100", "unit": "µM"}, {"measurement": "TGI", "setting": "[27]", "result": "> 100", "unit": "µM"}, {"measurement": "TGI", "setting": "[28]", "result": "> 100", "unit": "µM"}, {"measurement": "TGI", "setting": "[29]", "result": "> 100", "unit": "µM"}, {"measurement": "TGI", "setting": "[30]", "result": "> 100", "unit": "µM"}, {"measurement": "TGI", "setting": "[31]", "result": "> 100", "unit": "µM"}, {"measurement": "TGI", "setting": "[32]", "result": "> 100", "unit": "µM"}, {"measurement": "TGI", "setting": "[33]", "result": "> 100", "unit": "µM"}, {"measurement": "TGI", "setting": "[34]", "result": "> 100", "unit": "µM"}, {"measurement": "TGI", "setting": "[35]", "result": "> 100", "unit": "µM"}, {"measurement": "TGI", "setting": "[36]", "result": "> 100", "unit": "µM"}, {"measurement": "TGI", "setting": "[37]", "result": "> 100", "unit": "µM"}, {"measurement": "TGI", "setting": "[38]", "result": "> 100", "unit": "µM"}, {"measurement": "TGI", "setting": "[39]", "result": "> 100", "unit": "µM"}, {"measurement": "TGI", "setting": "[40]", "result": "> 100", "unit": "µM"}, {"measurement": "TGI", "setting": "[41]", "result": "> 100", "unit": "µM"}, {"measurement": "TGI", "setting": "[42]", "result": "> 100", "unit": "µM"}, {"measurement": "TGI", "setting": "[43]", "result": "> 100", "unit": "µM"}, {"measurement": "TGI", "setting": "[44]", "result": "> 100", "unit": "µM"}, {"measurement": "TGI", "setting": "[45]", "result": "> 100", "unit": "µM"}, {"measurement": "TGI", "setting": "[46]", "result": "> 100", "unit": "µM"}, {"measurement": "TGI", "setting": "[47]", "result": "> 100", "unit": "µM"}, {"measurement": "TGI", "setting": "[48]", "result": "> 100", "unit": "µM"}, {"measurement": "TGI", "setting": "[49]", "result": "> 100", "unit": "µM"}, {"measurement": "TGI", "setting": "[50]", "result": "> 100", "unit": "µM"}, {"measurement": "TGI", "setting": "[51]", "result": "> 100", "unit": "µM"}, {"measurement": "TGI", "setting": "[52]", "result": "> 100", "unit": "µM"}, {"measurement": "TGI", "setting": "[53]", "result": "> 100", "unit": "µM"}]}
{"smiles": "CCC(C)C1NC(=O)C2CCCN2C(=O)C(CC2CO2)OC(=O)CCNC(=O)C(C)N(C)C(=O)C(C(C)C)N(C)C1=O", "note": "(stereo not given)", "values": [{"measurement": "TGI", "setting": "[1]", "result": "> 100", "unit": "µM"}, {"measurement": "TGI", "setting": "[3]", "result": "> 100", "unit": "µM"}, {"measurement": "TGI", "setting": "[4]", "result": "> 100", "unit": "µM"}, {"measurement": "TGI", "setting": "[5]", "result": "> 17.1", "unit": "µM"}, {"measurement": "TGI", "setting": "[6]", "result": "> 100", "unit": "µM"}, {"measurement": "TGI", "setting": "[8]", "result": "> 100", "unit": "µM"}, {"measurement": "TGI", "setting": "[54]", "result": "> 100", "unit": "µM"}, {"measurement": "TGI", "setting": "[9]", "result": 47.3, "unit": "µM"}, {"measurement": "TGI", "setting": "[11]", "result": 2.15, "unit": "µM"}, {"measurement": "TGI", "setting": "[12]", "result": 0.0641, "unit": "µM"}, {"measurement": "TGI", "setting": "[13]", "result": "> 100", "unit": "µM"}, {"measurement": "TGI", "setting": "[14]", "result": "> 100", "unit": "µM"}, {"measurement": "TGI", "setting": "[55]", "result": "> 100", "unit": "µM"}, {"measurement": "TGI", "setting": "[15]", "result": "> 100", "unit": "µM"}, {"measurement": "TGI", "setting": "[16]", "result": "> 100", "unit": "µM"}, {"measurement": "TGI", "setting": "[56]", "result": "> 100", "unit": "µM"}, {"measurement": "TGI", "setting": "[17]", "result": 15, "unit": "µM"}, {"measurement": "TGI", "setting": "[18]", "result": "> 100", "unit": "µM"}, {"measurement": "TGI", "setting": "[19]", "result": 0.118, "unit": "µM"}, {"measurement": "TGI", "setting": "[21]", "result": "> 100", "unit": "µM"}, {"measurement": "TGI", "setting": "[22]", "result": "> 100", "unit": "µM"}, {"measurement": "TGI", "setting": "[25]", "result": "> 100", "unit": "µM"}, {"measurement": "TGI", "setting": "[26]", "result": "> 100", "unit": "µM"}, {"measurement": "TGI", "setting": "[27]", "result": "> 100", "unit": "µM"}, {"measurement": "TGI", "setting": "[28]", "result": "> 100", "unit": "µM"}, {"measurement": "TGI", "setting": "[29]", "result": "> 100", "unit": "µM"}, {"measurement": "TGI", "setting": "[30]", "result": "> 100", "unit": "µM"}, {"measurement": "TGI", "setting": "[31]", "result": "> 100", "unit": "µM"}, {"measurement": "TGI", "setting": "[33]", "result": "> 100", "unit": "µM"}, {"measurement": "TGI", "setting": "[34]", "result": "> 100", "unit": "µM"}, {"measurement": "TGI", "setting": "[35]", "result": "> 100", "unit": "µM"}, {"measurement": "TGI", "setting": "[36]", "result": "> 100", "unit": "µM"}, {"measurement": "TGI", "setting": "[37]", "result": "> 100", "unit": "µM"}, {"measurement": "TGI", "setting": "[38]", "result": 0.0179, "unit": "µM"}, {"measurement": "TGI", "setting": "[39]", "result": "> 100", "unit": "µM"}, {"measurement": "TGI", "setting": "[40]", "result": "< 0.0276", "unit": "µM"}, {"measurement": "TGI", "setting": "[41]", "result": "> 100", "unit": "µM"}, {"measurement": "TGI", "setting": "[43]", "result": "> 33.6", "unit": "µM"}, {"measurement": "TGI", "setting": "[44]", "result": "> 100", "unit": "µM"}, {"measurement": "TGI", "setting": "[45]", "result": "> 100", "unit": "µM"}, {"measurement": "TGI", "setting": "[57]", "result": "> 100", "unit": "µM"}, {"measurement": "TGI", "setting": "[46]", "result": "> 100", "unit": "µM"}, {"measurement": "TGI", "setting": "[47]", "result": "> 100", "unit": "µM"}, {"measurement": "TGI", "setting": "[48]", "result": "> 100", "unit": "µM"}, {"measurement": "TGI", "setting": "[49]", "result": 0.0341, "unit": "µM"}, {"measurement": "TGI", "setting": "[50]", "result": "> 100", "unit": "µM"}, {"measurement": "TGI", "setting": "[51]", "result": "> 100", "unit": "µM"}]}
